This is an account of results in the Kinase Knowledgebase extract (Sharma et al. 2016).

Bounds are passed on as bounds.

The target of one test is MAPK14 (UniProt Q16539). Kind of test: SAPK2-alpha Kinase Inhibition.
Sequence of MAPK14 (Q16539 whole entry, looked up): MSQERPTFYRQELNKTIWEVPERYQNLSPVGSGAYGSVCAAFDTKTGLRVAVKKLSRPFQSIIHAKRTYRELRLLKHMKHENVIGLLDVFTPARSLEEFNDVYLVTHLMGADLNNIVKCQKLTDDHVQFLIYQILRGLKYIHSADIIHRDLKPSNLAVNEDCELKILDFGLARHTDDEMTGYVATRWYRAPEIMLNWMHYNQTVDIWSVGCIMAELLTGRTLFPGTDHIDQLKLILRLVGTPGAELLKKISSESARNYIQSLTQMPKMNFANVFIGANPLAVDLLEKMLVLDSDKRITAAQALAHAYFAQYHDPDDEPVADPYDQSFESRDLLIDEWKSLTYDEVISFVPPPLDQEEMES
Take `Cc1nc(C)c(-c2ccnc(Nc3ccc(Cl)cc3)n2)s1`: the IC50 is greater than 20000 nM.
`Cc1nc(C)c(-c2ccnc(Nc3ccc(F)cc3)n2)s1`: the IC50 was greater than 20000 nM.
In turn, `Cc1nc(C)c(-c2ccnc(Nc3cccc([N+](=O)[O-])c3)n2)s1` gave an IC50 greater than 20000 nM.

The target in the next test is CDK2 (UniProt P24941). Kind of test: Enzyme Assay.
`CNc1nc(C)c(-c2ccnc(Nc3ccc(F)c(F)c3)n2)s1`: the IC50 was determined as 1200 nM.
For the compound `CNc1nc(C)c(-c2ccnc(Nc3cccc(F)c3)n2)s1`, the IC50 was found to be 600 nM.
On the same count and under the same terms, for `COc1ccc(Nc2nccc(-c3sc(C)nc3C)n2)c(O)c1` the value was 600 nM.
On the same count and under the same terms, under `Cc1nc(C)c(-c2ccnc(Nc3ccc([N+](C)(C)C)cc3)n2)s1` stands 1500 nM.
Still for that read-out and setting: for `CNc1nc(C)c(-c2ccnc(Nc3cc(F)cc(F)c3)n2)s1` the value was 2000 nM.
As for `CNc1nc(C)c(-c2ccnc(Nc3ccc(OC)cc3)n2)s1`, the IC50 is 800 nM.
Same read-out and setting: for `COC(=O)c1cc(Nc2nccc(-c3sc(C)nc3C)n2)ccc1Cl` the value was 1100 nM; for `CNc1nc(C)c(-c2ccnc(Nc3cccc(Cl)c3)n2)s1`, 3000 nM.
As to `COCCOC(=O)c1cc(Nc2nccc(-c3sc(C)nc3C)n2)ccc1F`, the 50% inhibitory concentration (IC50) turned out to be 600 nM.
Still for that read-out and setting: under `Cc1nc(C)c(-c2ccnc(Nc3ccc(Cc4ccncc4)cc3)n2)s1` stands 700 nM; under `CNc1nc(C)c(-c2ccnc(Nc3ccc(Cl)c(C(F)(F)F)c3)n2)s1`, 10000 nM.
The compound `Cc1nc(C)c(-c2ccnc(Nc3cccc(NC(=N)N)c3)n2)s1` registered an IC50 of 1400 nM.

The next test deals with CDK2 (UniProt P24941).
Test: not given
As for `Cc1nc(C)c(-c2ccnc(Nc3ccc(Cl)cc3)n2)s1`, the IC50 is 9000 nM.

By IC50 is commonly meant the point on the concentration scale where inhibition reaches its midpoint. Read a low IC50 as greater potency.
